Measured values: ChEMBL document CHEMBL2062425, “Synthesis and in vitro evaluation of α-synuclein ligands” (Bioorg Med Chem, 2012)
pIC50, pKi: −log10 of the molar value.

Biological target: Alpha-synuclein (Homo sapiens, UniProt P37840)
Assay: biochemical

## c1ccc2c(c1)Nc1ccccc1S2 [PHENOTHIAZINE]
  pIC50: 4.59
  pKi: < 6.30
